According to ChEMBL document CHEMBL2062364, “Discovery and optimization of new benzimidazole- and benzoxazole-pyrimidone selective PI3Kβ inhibitors for the treatment of phosphatase and TENsin homologue (PTEN)-deficient cancers” (J Med Chem, 2012):
≈ marks a conversion by molar mass, not a printed value.

Experiments:
[1] = molecular target: T1, Phosphatidylinositol 4,5-bisphosphate 3-kinase catalytic subunit beta isoform (Homo sapiens, UniProt P42338); experiment: Inhibition of human PI3Kbeta-mediated Akt phosphorylation at Ser473 residue expressed in PTEN-deficient human PC3 cells by chemiluminescence assay; assay type: cell-based, PC-3
T1 sequence (P42338 whole entry, canonical isoform): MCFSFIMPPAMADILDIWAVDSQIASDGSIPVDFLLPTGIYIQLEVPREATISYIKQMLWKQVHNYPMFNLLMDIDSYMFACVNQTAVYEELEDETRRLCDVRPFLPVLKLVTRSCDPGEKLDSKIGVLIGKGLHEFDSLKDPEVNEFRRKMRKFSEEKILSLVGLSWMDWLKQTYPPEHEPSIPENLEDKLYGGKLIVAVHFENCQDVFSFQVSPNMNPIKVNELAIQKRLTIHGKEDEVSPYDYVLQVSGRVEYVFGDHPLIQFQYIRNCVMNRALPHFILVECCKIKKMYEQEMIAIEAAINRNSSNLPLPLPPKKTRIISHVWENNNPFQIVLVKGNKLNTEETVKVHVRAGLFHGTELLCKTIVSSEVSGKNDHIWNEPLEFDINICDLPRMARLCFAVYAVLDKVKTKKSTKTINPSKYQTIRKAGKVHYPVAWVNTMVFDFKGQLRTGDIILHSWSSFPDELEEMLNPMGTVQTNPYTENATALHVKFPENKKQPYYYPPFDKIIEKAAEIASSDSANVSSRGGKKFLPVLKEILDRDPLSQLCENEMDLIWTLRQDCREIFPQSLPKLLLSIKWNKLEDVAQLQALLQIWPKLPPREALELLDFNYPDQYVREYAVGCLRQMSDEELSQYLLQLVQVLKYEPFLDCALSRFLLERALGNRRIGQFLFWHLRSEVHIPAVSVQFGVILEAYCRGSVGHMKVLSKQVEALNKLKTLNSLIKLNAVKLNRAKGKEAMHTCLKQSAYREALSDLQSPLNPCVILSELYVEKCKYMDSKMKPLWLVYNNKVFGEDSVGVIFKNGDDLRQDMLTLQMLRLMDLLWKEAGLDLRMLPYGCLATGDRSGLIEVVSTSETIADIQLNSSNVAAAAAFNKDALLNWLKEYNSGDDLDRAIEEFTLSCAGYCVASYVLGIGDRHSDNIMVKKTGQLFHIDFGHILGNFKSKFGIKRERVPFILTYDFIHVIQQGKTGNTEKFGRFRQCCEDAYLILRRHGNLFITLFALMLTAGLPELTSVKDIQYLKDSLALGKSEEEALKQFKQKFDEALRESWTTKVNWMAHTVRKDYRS

[2] = Inhibition of mTORC2-mediated Akt phosphorylation at Ser473 residue in PTEN-deficient human PC3 cells after 2 hrs by Western blot analysis; assay type: cell-based; conditions: PC-3, 2 h
[3] = molecular target: T1, Phosphatidylinositol 4,5-bisphosphate 3-kinase catalytic subunit beta isoform; experiment: Inhibition of N-terminus poly-His tagged human PI3Kbeta expressed in baculovirus infected insect […] cells coexpressing p85alpha using PI(4,5)P2 as substrate preincubated with compound for 15 mins measured after 10 mins by HTRF assay
[4] = molecular target: T1, Phosphatidylinositol 4,5-bisphosphate 3-kinase catalytic subunit beta isoform; experiment: Inhibition of human PI3Kbeta-mediated Akt phosphorylation at T308 residue expressed in PTEN-deficient human PC3 cells after 2 hrs by Western blot analysis; assay type: cell-based, PC-3
[5] = Drug metabolism in human liver microsomes; assay type: ADME, Microsome; conditions: read-out: Drug metabolism
[6] = Thermodynamic solubility of the compound in phosphate buffer at pH 7.4 after 16 hrs by HPLC analysis; assay type: physicochemical; conditions: read-out: Therm_solubility
[7] = molecular target: T2, Phosphatidylinositol 4,5-bisphosphate 3-kinase catalytic subunit delta isoform (Homo sapiens, UniProt O00329); experiment: Inhibition of poly-His tagged human PI3Kdelta expressed in baculovirus infected insect sf9 cells coexpressing p85alpha using PI(4,5)P2 as substrate preincubated with compound for 15 mins measured after 10 mins by HTRF assay
T2 sequence (O00329 whole entry): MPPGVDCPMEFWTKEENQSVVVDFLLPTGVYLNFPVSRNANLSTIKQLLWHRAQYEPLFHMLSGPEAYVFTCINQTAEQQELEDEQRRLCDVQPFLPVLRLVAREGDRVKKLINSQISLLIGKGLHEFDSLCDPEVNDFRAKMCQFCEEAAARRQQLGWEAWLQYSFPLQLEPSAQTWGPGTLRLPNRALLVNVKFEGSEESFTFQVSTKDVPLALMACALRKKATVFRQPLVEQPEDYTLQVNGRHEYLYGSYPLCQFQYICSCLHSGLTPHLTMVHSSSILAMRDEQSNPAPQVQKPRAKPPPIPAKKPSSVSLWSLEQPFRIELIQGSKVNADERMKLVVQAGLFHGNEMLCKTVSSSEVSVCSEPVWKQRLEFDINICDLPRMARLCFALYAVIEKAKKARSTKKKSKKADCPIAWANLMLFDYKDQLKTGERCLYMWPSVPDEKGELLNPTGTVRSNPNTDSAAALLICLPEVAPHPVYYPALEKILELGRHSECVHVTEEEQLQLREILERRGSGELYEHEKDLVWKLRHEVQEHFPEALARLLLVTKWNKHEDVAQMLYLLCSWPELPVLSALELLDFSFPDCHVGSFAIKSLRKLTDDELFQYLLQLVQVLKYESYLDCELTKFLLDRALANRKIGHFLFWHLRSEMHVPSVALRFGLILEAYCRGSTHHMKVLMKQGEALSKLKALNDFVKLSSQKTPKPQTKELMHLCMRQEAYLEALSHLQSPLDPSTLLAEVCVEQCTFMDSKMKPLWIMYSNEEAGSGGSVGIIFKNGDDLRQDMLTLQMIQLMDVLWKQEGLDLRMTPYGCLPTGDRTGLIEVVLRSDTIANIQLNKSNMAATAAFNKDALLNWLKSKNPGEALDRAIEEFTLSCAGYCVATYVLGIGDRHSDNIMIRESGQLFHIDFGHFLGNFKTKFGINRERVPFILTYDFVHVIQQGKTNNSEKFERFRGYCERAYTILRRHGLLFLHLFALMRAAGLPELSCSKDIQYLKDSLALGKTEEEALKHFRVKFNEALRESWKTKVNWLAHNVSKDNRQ

[8] = Apparent permeability of the compound across human Caco2 cells; assay type: ADME, cell-based; conditions: Caco-2
Cytochrome P450 3A4 = Cytochrome P450 3A4 (Homo sapiens, UniProt P08684); experiment: Inhibition of human recombinant CPY3A4
Chain of Cytochrome P450 3A4 (P08684 whole entry, canonical isoform): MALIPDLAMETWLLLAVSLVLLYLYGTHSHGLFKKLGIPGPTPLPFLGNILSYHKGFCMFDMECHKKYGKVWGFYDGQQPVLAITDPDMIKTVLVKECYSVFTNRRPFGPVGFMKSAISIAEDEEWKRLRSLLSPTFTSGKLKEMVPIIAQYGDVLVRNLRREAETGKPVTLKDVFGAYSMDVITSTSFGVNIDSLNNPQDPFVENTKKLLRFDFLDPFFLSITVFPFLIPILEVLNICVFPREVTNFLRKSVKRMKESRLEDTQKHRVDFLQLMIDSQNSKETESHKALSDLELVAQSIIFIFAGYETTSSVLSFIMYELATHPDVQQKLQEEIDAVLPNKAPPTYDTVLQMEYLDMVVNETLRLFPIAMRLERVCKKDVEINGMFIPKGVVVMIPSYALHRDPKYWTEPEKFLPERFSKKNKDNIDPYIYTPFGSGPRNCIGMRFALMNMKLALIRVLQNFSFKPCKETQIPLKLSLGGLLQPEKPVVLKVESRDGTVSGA

[9] = molecular target: T3, Phosphatidylinositol 4,5-bisphosphate 3-kinase catalytic subunit gamma isoform (Homo sapiens, UniProt P48736); experiment: Inhibition of N-terminus poly-His tagged human PI3Kgamma expressed in baculovirus infected insect sf9 cells using PI(4,5)P2 as substrate preincubated with compound for 15 mins measured after 10 mins by HTRF assay
T3 sequence (P48736 whole entry, canonical isoform): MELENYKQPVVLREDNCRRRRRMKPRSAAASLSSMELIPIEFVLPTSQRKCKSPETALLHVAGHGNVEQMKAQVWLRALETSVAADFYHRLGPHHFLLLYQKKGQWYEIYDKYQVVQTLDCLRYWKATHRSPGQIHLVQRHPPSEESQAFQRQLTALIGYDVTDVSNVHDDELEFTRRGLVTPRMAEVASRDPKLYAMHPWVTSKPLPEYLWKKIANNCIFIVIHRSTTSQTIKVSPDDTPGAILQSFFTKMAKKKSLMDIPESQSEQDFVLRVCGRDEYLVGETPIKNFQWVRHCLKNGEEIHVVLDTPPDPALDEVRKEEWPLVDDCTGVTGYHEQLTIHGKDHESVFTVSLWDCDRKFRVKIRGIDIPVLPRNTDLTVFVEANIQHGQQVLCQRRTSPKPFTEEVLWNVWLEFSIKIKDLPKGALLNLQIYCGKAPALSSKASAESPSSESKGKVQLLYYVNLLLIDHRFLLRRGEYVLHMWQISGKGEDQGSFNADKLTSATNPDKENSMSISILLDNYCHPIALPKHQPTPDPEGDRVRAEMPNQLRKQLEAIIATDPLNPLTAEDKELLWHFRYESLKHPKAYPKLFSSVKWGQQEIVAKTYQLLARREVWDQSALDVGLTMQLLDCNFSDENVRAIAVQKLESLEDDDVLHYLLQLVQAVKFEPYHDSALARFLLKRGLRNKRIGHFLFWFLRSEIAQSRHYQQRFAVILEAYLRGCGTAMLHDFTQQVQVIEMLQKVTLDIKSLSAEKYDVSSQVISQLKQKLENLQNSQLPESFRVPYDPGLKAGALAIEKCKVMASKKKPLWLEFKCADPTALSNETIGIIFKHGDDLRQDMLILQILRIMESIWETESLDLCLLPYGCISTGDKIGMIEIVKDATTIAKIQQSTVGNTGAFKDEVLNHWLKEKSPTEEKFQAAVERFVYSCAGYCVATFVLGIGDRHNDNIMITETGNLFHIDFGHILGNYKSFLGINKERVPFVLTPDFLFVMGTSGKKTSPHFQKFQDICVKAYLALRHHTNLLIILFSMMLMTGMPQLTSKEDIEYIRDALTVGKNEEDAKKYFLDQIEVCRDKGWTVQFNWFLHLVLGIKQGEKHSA

[10] = molecular target: T4, Phosphatidylinositol 4,5-bisphosphate 3-kinase catalytic subunit alpha isoform (Homo sapiens, UniProt P42336); experiment: Inhibition of N-terminus poly-His tagged human PI3Kalpha expressed in baculovirus infected insect sf9 cells coexpressing p85alpha using PI(4,5)P2 as substrate preincubated with compound for 15 mins measured after 10 mins by HTRF assay
T4 sequence (P42336 whole entry, canonical isoform): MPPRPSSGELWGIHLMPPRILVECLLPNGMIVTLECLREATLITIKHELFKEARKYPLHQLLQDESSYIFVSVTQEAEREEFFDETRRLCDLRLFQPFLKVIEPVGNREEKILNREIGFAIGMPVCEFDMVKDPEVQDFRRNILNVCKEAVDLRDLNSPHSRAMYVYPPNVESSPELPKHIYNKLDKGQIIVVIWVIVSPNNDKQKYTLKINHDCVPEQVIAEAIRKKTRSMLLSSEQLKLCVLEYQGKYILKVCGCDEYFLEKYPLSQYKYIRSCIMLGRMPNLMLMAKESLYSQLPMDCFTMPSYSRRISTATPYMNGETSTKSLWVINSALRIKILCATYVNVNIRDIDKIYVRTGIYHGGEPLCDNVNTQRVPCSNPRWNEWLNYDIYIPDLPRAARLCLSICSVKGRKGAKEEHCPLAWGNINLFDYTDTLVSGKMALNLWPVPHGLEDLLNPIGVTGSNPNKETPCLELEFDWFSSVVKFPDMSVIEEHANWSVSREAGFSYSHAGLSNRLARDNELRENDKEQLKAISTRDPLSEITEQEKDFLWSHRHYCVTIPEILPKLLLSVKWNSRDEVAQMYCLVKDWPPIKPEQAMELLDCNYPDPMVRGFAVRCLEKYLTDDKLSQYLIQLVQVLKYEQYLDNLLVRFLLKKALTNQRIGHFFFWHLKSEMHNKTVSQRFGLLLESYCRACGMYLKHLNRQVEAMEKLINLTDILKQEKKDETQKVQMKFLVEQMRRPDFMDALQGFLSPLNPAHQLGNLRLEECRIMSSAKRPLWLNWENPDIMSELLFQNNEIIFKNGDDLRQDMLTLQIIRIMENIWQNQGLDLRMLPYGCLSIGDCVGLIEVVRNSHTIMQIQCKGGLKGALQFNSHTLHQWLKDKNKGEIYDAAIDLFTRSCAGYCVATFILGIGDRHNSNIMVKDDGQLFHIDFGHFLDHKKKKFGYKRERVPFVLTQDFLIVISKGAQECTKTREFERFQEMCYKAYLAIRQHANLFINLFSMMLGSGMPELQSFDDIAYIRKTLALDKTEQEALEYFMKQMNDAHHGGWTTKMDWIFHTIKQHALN

[11] = molecular target: Serine/threonine-protein kinase mTOR (Homo sapiens, UniProt P42345); experiment: Inhibition of mTOR
[12] = Drug metabolism in mouse liver microsomes; assay type: ADME, Microsome; conditions: read-out: Drug metabolism
[13] = molecular target: T3, Phosphatidylinositol 4,5-bisphosphate 3-kinase catalytic subunit gamma isoform; experiment: Inhibition of human PI3Kgamma-mediated Akt phosphorylation at Ser473 residue expressed in mouse RAW264.7 cells after 0.5 to 2 hrs by Western blot analysis; assay type: cell-based
[14] = molecular target: T4, Phosphatidylinositol 4,5-bisphosphate 3-kinase catalytic subunit alpha isoform; experiment: Inhibition of human PI3Kalpha-mediated Akt phosphorylation at Ser473 residue expressed in human H460 cells after 0.5 to 2 hrs by Western blot analysis; assay type: cell-based
[15] = molecular target: T2, Phosphatidylinositol 4,5-bisphosphate 3-kinase catalytic subunit delta isoform; experiment: Inhibition of human PI3Kdelta-mediated Akt phosphorylation at Ser473 residue expressed in mouse MEF-3T3 cells after 0.5 to 2 hrs by Western blot analysis; assay type: cell-based

Row | IC50 [1] [µM] | IC50 [2] [µM] | IC50 [3] [µM] | IC50 [4] [µM] | metabolised [5] [%] | solubility thermodynamic at 16 h [6] [µM] | IC50 [7] [µM] | Papp [8] [×10⁻⁶ cm/s] | IC50 (Cytochrome P450 3A4) [µM] | IC50 [9] [µM] | IC50 [10] [µM] | IC50 [11] [µM] | metabolised [12] [%] | IC50 [13] [µM] | IC50 [14] [µM] | IC50 [15] [µM] | SMILES
1 | 0.003 | 0.003 | 0.028 | 0.003 | – | – | – | – | – | – | – | – | – | – | – | – | Cc1cc(C(C)Nc2ccccc2)c2oc(N3CCOCC3)cc(=O)c2c1 (stereo not drawn)
2 | 0.041 | 0.041 | 0.03 | 0.1 | 69 | 76 (≈ 25 µg/mL) | 0.219 | 0.2 | > 40 | > 10 | > 10 | > 10 | 0 | – | – | – | O=c1cc(N2CCOCC2)nc(Cc2nc3ccc(F)cc3[nH]2)[nH]1
3 | 0.008 | – | 0.075 | – | 98 | 397 (≈ 154 µg/mL) | 0.036 | 4.4 | > 40 | > 10 | 6.79 | > 10 | 100 | – | – | – | O=c1cc(N2CCOCC2)nc(Cc2nc3ccccc3n2-c2ccccc2)[nH]1
4 | 0.065 | – | 0.01 | – | 78 | 3 (≈ 1.16 µg/mL) | 0.18 | 0.1 | > 40 | > 10 | 5.5 | > 10 | 51 | – | – | – | O=c1cc(N2CCOCC2)nc(Cc2nc3c(-c4ccccc4)cccc3[nH]2)[nH]1
5 | 0.016 | – | 0.082 | – | 39 | 3 (≈ 1.03 µg/mL) | 0.855 | 3.1 | > 40 | > 10 | > 10 | > 10 | 20 | – | – | – | Cn1c(Cc2nc(N3CCOCC3)cc(=O)[nH]2)nc2cc(F)ccc21
6 | 0.017 | – | 0.06 | – | 57 | 2 (≈ 0.803 µg/mL) | 0.181 | 3.9 | > 40 | > 10 | 4.58 | > 10 | 55 | – | – | – | Cn1c(Cc2nc(N3CCOCC3)cc(=O)[nH]2)nc2cccc(-c3ccccc3)c21
7 | 0.026 | – | 0.072 | – | 60 | 221 (≈ 75 µg/mL) | 0.225 | 0.5 | > 40 | 8.27 | 1 | > 10 | 48 | – | – | – | CCn1c(Cc2nc(N3CCOCC3)cc(=O)[nH]2)nc2ccccc21
8 | 0.062 | – | 0.082 | – | 41 | 160 (≈ 50 µg/mL) | 0.779 | 19.9 | > 40 | > 10 | > 10 | > 10 | 7 | – | – | – | O=c1cc(N2CCOCC2)nc(Cc2nc3ccccc3o2)[nH]1
9 | 0.026 | – | 0.046 | – | 47 | 3 (≈ 0.991 µg/mL) | 0.854 | 16 | > 40 | > 10 | > 10 | > 10 | 23 | – | – | – | O=c1cc(N2CCOCC2)nc(Cc2nc3cc(F)ccc3o2)[nH]1
10 | 0.022 | – | 0.046 | – | 60 | 3 (≈ 1.18 µg/mL) | 0.398 | 25.5 | 19 | 5.74 | 4.36 | > 10 | 79 | – | – | – | O=c1cc(N2CCOCC2)nc(Cc2nc3c(-c4cccs4)cccc3o2)[nH]1
11 | 0.177 | – | 0.09 | – | 57 | 3 (≈ 1.17 µg/mL) | 1.18 | 32.3 | > 40 | > 10 | > 10 | > 10 | 61 | – | – | – | O=c1cc(N2CCOCC2)nc(Cc2nc3cccc(-c4ccccc4)c3o2)[nH]1
12 | – | 0.01 | – | – | – | – | 0.851 | – | – | > 10 | > 10 | – | – | > 1 | > 1 | 0.252 | Cc1cc(C(C)Nc2ccccc2)c2nc(N3CCOCC3)cc(=O)n2c1 (stereo not drawn)
